Tested on: P12-Ichikawa
Experiment: cell viability relative to DMSO control; higher = less cytotoxic
Conditions: 48 h
Method in brief: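 NOMO1 or SEM cells were plated at 500 cells/well and P12-Ichikawa cells at 1000 cells/well in 1536-well plates (5 μl), after each leukemia line had been adapted for at least four passages in each medium. Pin dosing delivered library compounds in DMSO at 11 threefold concentrations, 47 μM to 0.79 nM. CellTiter-Glo One luminescence was read after 48 h at 37°C. Viability is reported as a per-plate percentage of DMSO wells, with cell-free wells as background.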

[1] = HPLM + 10% dialyzed FBS, 0.000781 µM
[2] = HPLM + 10% dialyzed FBS, 0.00234 µM
[3] = HPLM + 10% dialyzed FBS, 0.00702 µM
[4] = HPLM + 10% dialyzed FBS, 0.0211 µM
[5] = HPLM + 10% dialyzed FBS, 0.0632 µM
[6] = HPLM + 10% dialyzed FBS, 0.19 µM
[7] = HPLM + 10% dialyzed FBS, 0.569 µM
[8] = HPLM + 10% dialyzed FBS, 1.71 µM
[9] = HPLM + 10% dialyzed FBS, 5.12 µM
[10] = HPLM + 10% dialyzed FBS, 15.4 µM
[11] = HPLM + 10% dialyzed FBS, 46.1 µM
[12] = RPMI 5 mM glucose + 10% FBS, 0.000781 µM
[13] = RPMI 5 mM glucose + 10% FBS, 0.00234 µM
[14] = RPMI 5 mM glucose + 10% FBS, 0.00702 µM
[15] = RPMI 5 mM glucose + 10% FBS, 0.0211 µM
[16] = RPMI 5 mM glucose + 10% FBS, 0.0632 µM
[17] = RPMI 5 mM glucose + 10% FBS, 0.19 µM
[18] = RPMI 5 mM glucose + 10% FBS, 0.569 µM
[19] = RPMI 5 mM glucose + 10% FBS, 1.71 µM
[20] = RPMI 5 mM glucose + 10% FBS, 5.12 µM
[21] = RPMI 5 mM glucose + 10% FBS, 15.4 µM
[22] = RPMI 5 mM glucose + 10% FBS, 46.1 µM
[23] = RPMI 5 mM glucose + 10% dialyzed FBS, 0.000781 µM
[24] = RPMI 5 mM glucose + 10% dialyzed FBS, 0.00234 µM
[25] = RPMI 5 mM glucose + 10% dialyzed FBS, 0.00702 µM
[26] = RPMI 5 mM glucose + 10% dialyzed FBS, 0.0211 µM
[27] = RPMI 5 mM glucose + 10% dialyzed FBS, 0.0632 µM
[28] = RPMI 5 mM glucose + 10% dialyzed FBS, 0.19 µM
[29] = RPMI 5 mM glucose + 10% dialyzed FBS, 0.569 µM
[30] = RPMI 5 mM glucose + 10% dialyzed FBS, 1.71 µM
[31] = RPMI 5 mM glucose + 10% dialyzed FBS, 5.12 µM
[32] = RPMI 5 mM glucose + 10% dialyzed FBS, 15.4 µM
[33] = RPMI 5 mM glucose + 10% dialyzed FBS, 46.1 µM

Compound	cell viability [1] [%]	cell viability [2] [%]	cell viability [3] [%]	cell viability [4] [%]	cell viability [5] [%]	cell viability [6] [%]	cell viability [7] [%]	cell viability [8] [%]	cell viability [9] [%]	cell viability [10] [%]	cell viability [11] [%]	cell viability [12] [%]	cell viability [13] [%]	cell viability [14] [%]	cell viability [15] [%]	cell viability [16] [%]	cell viability [17] [%]	cell viability [18] [%]	cell viability [19] [%]	cell viability [20] [%]	cell viability [21] [%]	cell viability [22] [%]	cell viability [23] [%]	cell viability [24] [%]	cell viability [25] [%]	cell viability [26] [%]	cell viability [27] [%]	cell viability [28] [%]	cell viability [29] [%]	cell viability [30] [%]	cell viability [31] [%]	cell viability [32] [%]	cell viability [33] [%]
CCc1c(C(=O)C(N)=O)c2c(OCC(=O)O)cccc2n1Cc1ccccc1	105	112	112	105	107	111	106	111	103	107	99.5	102	101	102	104	105	98.1	96.5	99.4	94.8	93.6	95.3	99.4	107	102	98.4	99.9	94.4	91.8	97.3	92.3	95.8	91.3
CCNC(=O)c1cc2c(-c3cc(OCCN4CCCC4)c(Cl)cc3Cl)nc(N)nc2s1	98.3	103	109	108	102	101	108	92.8	62.9	53.6	44.9	102	91.9	106	97	98.4	95.8	97.2	77.6	47.1	34	35.5	102	96.5	101	94.7	96	97.6	90.5	73.4	42	36.5	31.5
CC(=O)NC(CS)C(=O)O (stereo unspecified)	81.9	82.9	88.7	88.4	91.3	86.4	89.3	87.2	87.3	18.4	27.5	75.5	74.2	81.5	78.2	81.4	69.5	83.3	80.4	88.8	28.6	62.5	80.4	80.4	76.4	82.7	89.7	79	84.4	88.8	77.2	27.8	45.6
O=C(/C=C/c1cccc([S+](=O)([O-])Nc2ccccc2)c1)NO	115	115	125	119	129	129	126	101	20.8	7.58	7.44																						
CC(=O)C\1=C(/C)C2=CN=C(NC3=CC=C(C=N3)N4CCNCC4)N=C2N(C5CCCC5)C1=O	111	121	119	114	114	110	107	93.1	88.5	77	28.9	119	116	124	113	113	119	98.5	78.6	72.6	66.6	61	122	117	127	117	118	114	104	83.4	76.9	73	45.6
C[C@@]12O[C@@H](C[C@]1(O)CO)n1c3ccccc3c3c4c(c5c6ccccc6n2c5c31)CNC4=O	115	112	109	112	110	101	81.3	29.9	23.2	15.2	12.9	116	117	121	110	111	98.2	70.5	26.1	26.6	15.6	8.24	115	109	115	103	97.6	104	62.3	33.8	24.3	9.03	8.99
